The record followed here is patent US20210171554A1, “BENZOTHIOPHENE ESTROGEN RECEPTOR MODULATORS TO TREAT MEDICAL DISORDERS” (G1 Therapeutics, Inc., priority 2018, published 2021).

Molecules are shown by their SMILES.

Experiment [1] has as its target T1, human estrogen receptor (ERα) (Homo sapiens, UniProt P03372).
T1 construct: purchased Indigo Biosciences #1B00401
T1 sequence (P03372 1-595): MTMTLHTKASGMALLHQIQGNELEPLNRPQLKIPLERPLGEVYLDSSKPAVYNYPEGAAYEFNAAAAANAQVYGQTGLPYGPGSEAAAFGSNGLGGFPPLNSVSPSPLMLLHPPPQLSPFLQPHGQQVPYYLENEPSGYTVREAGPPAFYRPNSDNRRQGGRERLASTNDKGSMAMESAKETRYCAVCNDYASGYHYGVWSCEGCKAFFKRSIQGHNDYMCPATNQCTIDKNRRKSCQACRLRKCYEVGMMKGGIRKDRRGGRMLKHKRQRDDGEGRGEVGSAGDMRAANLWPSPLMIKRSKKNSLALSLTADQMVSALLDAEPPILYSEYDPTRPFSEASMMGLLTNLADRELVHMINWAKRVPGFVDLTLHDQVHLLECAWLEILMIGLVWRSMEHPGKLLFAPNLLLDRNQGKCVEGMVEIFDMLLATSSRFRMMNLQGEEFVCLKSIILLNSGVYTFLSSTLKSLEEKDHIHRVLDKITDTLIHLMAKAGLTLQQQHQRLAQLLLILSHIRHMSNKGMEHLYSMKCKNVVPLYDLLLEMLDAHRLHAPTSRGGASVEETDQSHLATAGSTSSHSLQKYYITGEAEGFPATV
The experiment can be described thus: Human ERα Reporter Assay (Indigo Biosciences, antagonist mode). The experiment is classed as cell-based. To be noted: antagonist activity, reporter cells with 17β-estradiol 8E-10 M, 24 hours. The procedure: All reagents used in this assay was supplied in the Human ERα Reporter Assay by Indigo Biosciences #1B00401. In an effort to screen selective estrogen receptor degraders (SERDs), the Human ERα Reporter Assay, supplied by Indigo Biosciences, was utilized to quantify antagonist functional activity against the human estrogen receptor. Reporter cells were thawed at 37° C. and added to pre-warmed to 37° C. cell recovery medium (CRM). Stock concentration of 17β-estradiol was serially diluted in CRM. Diluted 17β-estradiol was added to CRM containing reporter cells resulting in a working concentration of 1.6 nM (2×). Cells plus 17β-estradiol were dispensed in a kit-supplied white walled 96-well plate. Concentrated stocks of test compounds were diluted to 2× working concentrations in cell screening medium (CSM). 2× concentrated compounds were added to the plated cells in a dose-dependent manner resulting in a final concentration range of 1E-11 to 1E-5 M and a final […] concentration of 8E-10 M. Assay plates were incubated for 24 hours in a humidified 37° C. incubator. Culture medium was removed from the assay plates by inversion. Detection substrate and buffer was warmed to room temperature, mixed thoroughly, and immediately added to the assay plates. Assay plates were incubated for 15 minutes at room temperature protected from light. Luminescence was measured in a Synergy HTX luminescence plate reader. Data is processed utilizing GraphPad Prism 7 by graphing the relative light units measured at each compound concentration.
(§1) In the below table for the Estrogen Receptor Degradation Assay and the Human ERα Reporter Assay: […]

In the next experiment the target is T2, estrogen receptor (Homo sapiens, UniProt P03372).
T2 construct: MCF7 cells, which are estrogen receptor positive; endogenous in cells; host or cells: MCF7
T2 sequence (P03372 1-595): T1 sequence (P03372 1-595)
The experiment can be described thus: Estrogen Receptor (ER) Degradation Assay (In-Cell Western, MCF7 cells). The experiment is classed as cell-based. Details: key to % Estrogen Receptor Remaining: **** denotes 0-0% Estrogen Receptor remaining; *** denotes 417% Estrogen Receptor remaining; ** denotes 719% Estrogen Receptor remaining; * denotes 9110% Estrogen Receptor remaining. To be noted: for DC50: 24 hours incubation, In-Cell Western, read-out: Estrogen Receptor Degradation Assay IC50; for % Estrogen Receptor Remaining: vehicle set to 100% ER. The procedure:
A screening strategy was implemented utilizing an In-Cell Western assay to measure their ability to degrade the estrogen receptor in vitro. MCF7 cells, which are estrogen receptor positive, were plated at a cell density of […] into black walled clear bottom 96-well plates. Cells were incubated in phenol red free Dulbecco's Modified Eagle Media (DMEM) supplemented with 8% charcoal-stripped fetal bovine calf serum for 24 hours in a humidified 37° C. incubator. Concentrated stock compounds were diluted to 10× in complete media. Compounds were added to the plated cells in a dose-dependent manner ranging from 1E-12 to 1E-05 M and incubated for an additional 24 hours at 37° C. Culture medium was removed from the culture plates by gentle inversion. Cells were fixed in 4% paraformaldehyde in 1×phosphate buffered saline-calcium magnesium free (PBS-CMF) for 15 minutes at room temperature, washed 3 times for 5 minutes each in 1×PBS-CMF. Cells were permeabilized in immunofluorescence (IF) blocking buffer (Cell Signaling #12411) containing 0.3% Triton X100. Cells were washed 3 times for 5 minutes each in 1×PBS-CMF and incubated in estrogen receptor α (D6R2W) rabbit primary antibody (Cell Signaling #13258) diluted 1:300 in IF antibody dilution buffer (Cell Signaling #12378). Cells were washed 3 times for 5 minutes each in 1×PBS-CMF and stained with goat anti-rabbit (Biotium #CF770) secondary antibody diluted 1:2000 in IF antibody dilution buffer and normalizing stain CellTag 700 diluted 1:500 (Licor #926-41090). ER protein expression was assessed by the Licor Odyssey CLx imaging system using Image Studio v5.2. Data is processed utilizing GraphPad Prism 7 by subtracting background from the vehicle and setting the vehicle to 100% ER activity, followed by comparing treated samples to vehicle.
as §1

One may read the IC50 as the concentration that gives 50% inhibition. Turning to `Cc1cc(F)cc(C)c1C(=O)c1sc2c(F)c(O)ccc2c1Oc1ccc(OC2CCN(CCCF)C2)cc1` (stereo in doubt) [Compound 112, (R)-(4-fluoro-2,6-dimethylphenyl)(7-fluoro-3-(4-((1-(3-fluoropropyl)pyrrolidin-3-yl)oxy)phenoxy)-6-hydroxybenzo[b]thiophen-2-yl)methanone], the IC50 in experiment [1] was less than 1 µM. For the same compound, on estrogen receptor, the DC50 is less than 1 µM and the “% Estrogen Receptor Remaining” value is reported as “**** (**** denotes 0-0% Estrogen Receptor remaining)”.

As to `Cc1cc(F)cc(C)c1C(=O)c1sc2cc(O)c(F)cc2c1Oc1ccc(OC2CCN(CCCF)C2)cc1` (stereo in doubt) [Compound 113, (R)-(4-fluoro-2,6-dimethylphenyl)(5-fluoro-3-(4-((1-(3-fluoropropyl)pyrrolidin-3-yl)oxy)phenoxy)-6-hydroxybenzo[b]thiophen-2-yl)methanone], the IC50 in experiment [1] was less than 1 µM. At estrogen receptor, the DC50 is less than 1 µM and the “% Estrogen Receptor Remaining” value is listed as “**** (**** denotes 0-0% Estrogen Receptor remaining)”.

Consider `Cc1cc(F)cc(C)c1C(=O)c1sc2cc(O)ccc2c1Oc1ccc(O[C@H]2CCN(CCCF)C2)cc1` [Compound 100, (S)-(4-fluoro-2,6-dimethylphenyl)(3-(4-((1-(3-fluoropropyl)pyrrolidin-3-yl)oxy)phenoxy)-6-hydroxybenzo[b]thiophen-2-yl)methanone], for which the IC50 in experiment [1] was less than 1 µM. Also, at estrogen receptor, the DC50 was less than 1 µM and the “% Estrogen Receptor Remaining” value is on record as “**** (**** denotes 0-0% Estrogen Receptor remaining)”.

With `Cc1cc(F)cc(C)c1C(=O)c1sc2cc(O)ccc2c1Oc1ccc(O[C@H]2CCNC2)cc1` [Compound 101, (S)-(4-fluoro-2,6-dimethylphenyl)(6-hydroxy-3-(4-(pyrrolidin-3-yloxy)phenoxy)benzo[b]thiophen-2-yl)methanone], the IC50 in experiment [1] was less than 1 µM. Further, on estrogen receptor, the DC50 was less than 1 µM and the “% Estrogen Receptor Remaining” value was “***”.

As for `Cc1cc(F)cc(C)c1C(=O)c1sc2cc(O)ccc2c1Oc1ccc(O[C@@H]2CCN(CCCF)C2)cc1` [Compound 102, (R)-(4-fluoro-2,6-dimethylphenyl)(3-(4-((1-(3-fluoropropyl)pyrrolidin-3-yl)oxy)phenoxy)-6-hydroxybenzo[b]thiophen-2-yl)methanone], the concentration for half-maximal inhibition (IC50) in experiment [1] is less than 1 µM. On estrogen receptor, the DC50 was less than 1 µM and the “% Estrogen Receptor Remaining” value was “**** (**** denotes 0-0% Estrogen Receptor remaining)”.

`CCNCCc1ccc(Oc2c(C(=O)c3c(C)cc(F)cc3C)sc3cc(C(=O)O)ccc23)cc1` [Compound 106, 3-(4-(2-(ethylamino)ethyl)phenoxy)-2-(4-fluoro-2,6-dimethylbenzoyl)benzo[b]thiophene-6-carboxylic acid]: in experiment [1], the IC50 is less than 1 µM. Moreover, on estrogen receptor, the DC50 was less than 1 µM and the “% Estrogen Receptor Remaining” value is on record as “***”.

For the compound `Cc1cc(F)cc(C)c1C(=O)c1sc2cc(O)ccc2c1-c1ccc(O[C@H]2CCN(CCCF)C2)cc1` [Compound 108, (S)-(4-fluoro-2,6-dimethylphenyl)(3-(4-((1-(3-fluoropropyl)pyrrolidin-3-yl)oxy)phenyl)-6-hydroxybenzo[b]thiophen-2-yl)methanone], the IC50 in experiment [1] is less than 50 µM. Also, at estrogen receptor, the DC50 was less than 1 µM and the “% Estrogen Receptor Remaining” value is recorded as “**”.

`Cc1cc(F)cc(C)c1C(=O)c1sc2cc(O)ccc2c1-c1ccc(OCCN2CCCC2)cc1` [Compound 109, (4-fluoro-2,6-dimethylphenyl)(6-hydroxy-3-(4-(2-(pyrrolidin-1-yl)ethoxy)phenyl)benzo[b]thiophen-2-yl)methanone]: in experiment [1], the IC50 was less than 1 µM. Besides, at estrogen receptor, the DC50 was less than 1 µM and the “% Estrogen Receptor Remaining” value is “***”.

`Cc1cc(F)cc(C)c1C(=O)c1sc2cc(O)ccc2c1-c1ccc(O[C@@H]2CCN(CCCF)C2)cc1` [Compound 110, (R)-(4-fluoro-2,6-dimethylphenyl)(3-(4-((1-(3-fluoropropyl)pyrrolidin-3-yl)oxy)phenyl)-6-hydroxybenzo[b]thiophen-2-yl)methanone]: the IC50 in experiment [1] is less than 1 µM. Further, at estrogen receptor, the DC50 was less than 1 µM and the “% Estrogen Receptor Remaining” value is on record as “***”.

For the compound `Cc1cc(F)cc(C)c1C(=O)c1sc2cc(O)ccc2c1Oc1ccc(OCCN2CCC(CCCF)C2)cc1` (stereo not shown) [Compound 115, (4-fluoro-2,6-dimethylphenyl)(3-(4-(2-(3-(3-fluoropropyl)pyrrolidin-1-yl)ethoxy)phenoxy)-6-hydroxybenzo[b]thiophen-2-yl)methanone], on estrogen receptor, the DC50 is less than 1 µM and the “% Estrogen Receptor Remaining” value was “**”.

Consider `Cc1cc(F)cc(C)c1C(=O)c1sc2cc(S(N)(=O)=O)ccc2c1Oc1ccc(O[C@H]2CCN(CCCF)C2)cc1` [Compound 116, (S)-2-(4-fluoro-2,6-dimethylbenzoyl)-3-(4-((1-(3-fluoropropyl)pyrrolidin-3-yl)oxy)phenoxy)benzo[b]thiophene-6-sulfonamide], for which, on estrogen receptor, the DC50 is less than 1 µM and the “% Estrogen Receptor Remaining” value was “**** (**** denotes 0-0% Estrogen Receptor remaining)”.
